Assay results: article doi:10.1101/2025.02.03.636334v1 (biorxiv, 2025)
Converted amounts (≈) assume the structure as drawn.

Key:
KasA [1] = biological target: T1, KasA (Mycobacterium tuberculosis, UniProt P9WQD9); assay: microscale thermophoresis, RED-NHS labelled KasA; assay type: binding
T1 sequence (P9WQD9 1-416): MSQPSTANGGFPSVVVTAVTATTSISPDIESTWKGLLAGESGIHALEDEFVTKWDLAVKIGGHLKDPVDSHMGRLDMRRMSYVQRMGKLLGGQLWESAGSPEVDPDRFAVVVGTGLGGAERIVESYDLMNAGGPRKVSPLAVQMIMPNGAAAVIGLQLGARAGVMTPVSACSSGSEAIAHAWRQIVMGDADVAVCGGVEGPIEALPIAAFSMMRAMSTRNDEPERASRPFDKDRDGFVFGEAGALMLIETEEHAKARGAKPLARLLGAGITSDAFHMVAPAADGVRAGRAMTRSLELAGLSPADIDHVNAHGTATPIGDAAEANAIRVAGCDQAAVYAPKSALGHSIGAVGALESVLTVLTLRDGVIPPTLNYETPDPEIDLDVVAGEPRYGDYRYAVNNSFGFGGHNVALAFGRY

KasA [2] = biological target: T1, KasA; assay: KasA-MabA coupled assay, NADPH at […] nm; assay type: biochemical; settings: read-out: % inhibition at 25 μM
KasA [3] = biological target: T1, KasA; assay: biochemical; settings: read-out: % KasA Inhibition at 25 µM Compound
M. tuberculosis H37Rv = assay: microbe, parasite or virus in culture; settings: Mycobacterium tuberculosis, 192 h, read-out: Mtb MIC (µM)
MabA [4] = biological target: T2, MabA (Mycobacterium tuberculosis, UniProt P9WGT3); assay: biochemical; settings: read-out: % of control remaining
MabA [5] = biological target: T2, MabA; assay: MabA NADPH oxidation at […] nm; assay type: biochemical

T2 sequence (P9WGT3 whole entry): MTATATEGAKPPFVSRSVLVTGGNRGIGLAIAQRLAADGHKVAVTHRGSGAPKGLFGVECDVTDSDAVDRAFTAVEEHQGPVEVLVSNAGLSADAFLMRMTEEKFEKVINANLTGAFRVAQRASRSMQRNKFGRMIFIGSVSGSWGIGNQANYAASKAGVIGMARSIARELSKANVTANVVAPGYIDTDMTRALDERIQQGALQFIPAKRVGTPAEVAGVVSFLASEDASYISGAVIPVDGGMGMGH

SMILES | inhibition at 25 µM (KasA [3]) | MIC (M. tuberculosis H37Rv) | remaining activity at 25 µM (MabA [4]) | also measured
O=C(Nc1nc(-c2ccccn2)cs1)c1cc(-c2ccccc2)nc2ccc(Br)cc12 [JSF-5071, 6-bromo-2-phenyl-N-(4-(pyridin-2-yl)thiazol-2-yl)quinoline-4-carboxamide] | – | – | – | Kd (KasA [1]): 4.78 ± 1.3 µM; inhibition at 25 µM (KasA [2]): 12.7 ± 4.8%
O=C(Nc1nc(-c2ccccn2)cs1)c1cc(-c2ccccc2)nc2ccc(Br)cc12 [Z29466477] | 15.3 ± 12.8% | 0.12 µM (≈ 0.0585 µg/mL) | 92.1 ± 16.2% | –
O=C(Nc1ccc(S(=O)(=O)Nc2cccc(C(F)(F)F)c2)cc1)c1cc2ccccc2oc1=O [Z31753778] | 12 ± 8.8% | 0.78 µM (≈ 0.381 µg/mL) | 97.9 ± 14.6% | –
O=C(C1=C2SC=C(c3ccccc3)N2CCCC1)c1cc(-c2ccccc2Cl)nc2ccccc12 [Z56802551] | 15.6 ± 11.1% | 12 µM (≈ 5.94 µg/mL) | 104 ± 22.4% | –
Cc1ccc(-c2cc(C(=O)N3CCC(C(=O)Nc4ccc5c(c4)OCO5)CC3)c3ccccc3n2)cc1 [Z99494139] | 11.5 ± 7% | 1.5 µM (≈ 0.74 µg/mL) | 101 ± 20.4% | –
O=C(Nc1ccc2c(c1)OCO2)C1CCN(C(=O)c2cc(-c3ccc(F)cc3)nc3ccccc23)CC1 [Z99494149] | 12 ± 8.8% | 3.1 µM (≈ 1.54 µg/mL) | 95.5 ± 15% | –
O=C(c1cc(-c2ccc(F)cc2)nc2ccccc12)N1CCC(NS(=O)(=O)c2cccs2)CC1 [Z212116604] | 14.7 ± 9.6% | 12 µM (≈ 5.95 µg/mL) | 99.4 ± 15% | –
O=C(Cn1c2ccccc2c(=O)c2ccccc21)NC(c1ccccc1)c1cc2ccccc2o1 (stereo not drawn) [Z229616646] | – | 100 µM (≈ 45.9 µg/mL) | – | –
c1cncc(-c2nc(N3CCN(Cc4ccc5ccccc5c4)CC3)c3ccccc3n2)c1 [Z237483836] | – | 100 µM (≈ 43.2 µg/mL) | – | –
O=C(CCc1ccc(-c2ccccc2)o1)N1CCN(c2ccnc3cc(Cl)ccc23)CC1 [Z285125220] | – | 100 µM (≈ 44.6 µg/mL) | – | –
Cc1ccc(-c2ccsc2C(=O)NNS(=O)(=O)c2ccc3oc(=O)ccc3c2)cc1 [Z299677296] | – | 100 µM (≈ 44.1 µg/mL) | – | –
O=C(CN1CCN(C(=O)c2cccc3ccccc23)CC1)Nc1ccccc1Cc1ccccc1 [Z316384350] | – | 25 µM (≈ 11.6 µg/mL) | – | –
O=C(Nc1nc(-c2cccc(C(F)(F)F)c2)cs1)C1CCN(C(=O)c2ccc(F)cc2)CC1 [Z318114792] | 4.72 ± 3% | 12 µM (≈ 5.73 µg/mL) | 102 ± 16.8% | –
Nc1nn(C(=O)c2cc(S(=O)(=O)Nc3cccc(C(F)(F)F)c3)ccc2Cl)c2ccccc12 [Z381337772] | – | 100 µM (≈ 49.5 µg/mL) | – | –
O=C(c1ccccc1)C1CCN(C2c3ccccc3-c3ccccc32)CC1 [Z646019388] | – | 100 µM (≈ 35.3 µg/mL) | – | –
O=C(Nc1ccc(O)cc1)C1CCN(C(=O)c2cccc(Oc3cccc(C(F)(F)F)c3)c2)CC1 [Z979305278] | 31.2 ± 9.3% | 12 µM (≈ 5.81 µg/mL) | 97.8 ± 16.3% | –
C(=N\Nc1nc(-c2ccccc2)c2ccccc2n1)/c1cccc2cccnc12 [Z1033301210] | 46.7 ± 12.5% | 12 µM (≈ 4.51 µg/mL) | 68.4 ± 16.8% | IC50 (MabA [5]): > 100 µM

SMILES | inhibition at 25 µM (KasA [3]) | MIC (M. tuberculosis H37Rv) | remaining activity at 25 µM (MabA [4]) | also measured
O=C(NCc1ccccc1)c1ccc(Oc2nc(-c3ccccc3)cc(-c3ccccc3)n2)cc1 [Z1037335532] | – | 100 µM (≈ 45.8 µg/mL) | – | –
c1ccc(-c2ccc(Oc3nc(-c4ccccc4)cc(-c4ccccc4)n3)cc2)cc1 [Z1037335802] | – | 100 µM (≈ 40 µg/mL) | – | –
Clc1ccc(-c2cc(Nc3ccccc3Cl)nc3ccccc23)cc1 [Z1143441182] | 13.9 ± 12% | 12 µM (≈ 4.38 µg/mL) | 105 ± 19.7% | –
c1ccc(C(c2ccccc2)N2CCN(c3nc4ccccc4c4nc(-c5cccnc5)nn34)CC2)cc1 [Z1157836627] | – | 100 µM (≈ 49.8 µg/mL) | – | –
Clc1ccc(-c2nc(NN=Cc3ccc4ccccc4n3)nc3ccccc23)cc1 [Z1187818773] | – | 100 µM (≈ 41 µg/mL) | – | –
O=C(c1ccccc1)c1ccc(Cl)cc1Nc1cc(-c2ccccc2)c2ccc(Cl)cc2n1 [Z1386458621] | – | 100 µM (≈ 46.9 µg/mL) | – | –
Cc1ccc2c(-c3ccccc3)nc(NN=Cc3c[nH]c4ccccc34)nc2c1 [Z1409330734] | – | 50 µM (≈ 18.9 µg/mL) | – | –
Clc1ccc2nc(N3N=C(c4ccccc4)CC3c3cccc(Br)c3)nc(-c3ccccc3)c2c1 (stereo not drawn) [Z1558470019] | – | 100 µM (≈ 54 µg/mL) | – | –
Cc1ccc(-c2nc(N3N=C(c4cccc(Br)c4)CC3c3cccc(Br)c3)nc3ccccc23)cc1 (stereo not drawn) [Z1558581154] | – | 100 µM (≈ 59.8 µg/mL) | – | –
Cc1ccc(-c2cc(-c3c(O)nc4ccccc4c3-c3ccccc3)nc3ccccc23)cc1 [Z1702969146] | 27.1 ± 8.1% | 12 µM (≈ 5.26 µg/mL) | 101 ± 17.6% | –
Cc1cccc(C2CC(c3ccc(N(C)C)cc3)=NN2c2nc(-c3ccc(Cl)cc3)c3ccccc3n2)c1 (stereo not drawn) [Z1898794184] | – | 100 µM (≈ 51.8 µg/mL) | – | –
Oc1nc2cc(Cl)ccc2c(-c2ccccc2)c1-c1cc(-c2ccccc2)c2ccc(Cl)cc2n1 [Z2010009645] | – | 100 µM (≈ 49.3 µg/mL) | – | –
Clc1ccc2c(-c3ccccc3)cc(-c3c(Cl)nc4ccc(Br)cc4c3-c3ccccc3)nc2c1 [Z2039275273] | – | 100 µM (≈ 55.6 µg/mL) | – | –
O=C1c2ccccc2C(=O)N1C(Cc1ccccc1)c1nc2c3ccccc3ncn2n1 (stereo not drawn) [Z2176371175] | – | 100 µM (≈ 41.9 µg/mL) | – | –
O=C(c1ccccc1)c1ccc(Cl)cc1Nc1cc(-c2ccccc2)c2cc(Cl)ccc2n1 [Z2196034878] | – | 100 µM (≈ 46.9 µg/mL) | – | –
Cc1ccc2c(-c3ccccc3)nc(NN=Cc3cnc4ccccc4n3)nc2c1 [Z2488926519] | – | 100 µM (≈ 39 µg/mL) | – | –
